Source: patent US8765774B2, “3-arylquinazolin-4-one compounds for combating invertebrate pests” (BASF SE, priority 2009, dated 2014)

Assays:
Type in all cases: in vivo
[1] = tested on: Kanzawa Spider Mite (Tetranychus kanzawai); assay: Kanzawa spider mite, sprayed potted cotton plants (II.7.a); conditions: 300 ppm; population reduction assessed after 24, 72 and 120 hours; in comparison with untreated controls
Protocol: The active compounds were dissolved at the desired concentration in a mixture of 1:1 (vol:vol) acetone:water. The test solutions were prepared at the day of use.
Potted cotton plants colonized with approximately 50 mites of various stages were sprayed after the pest population had been recorded. Population reductions (or increases) after 24, 72 and 120 hours were assessed.

[2] = tested on: Diamond Back Moth (Plutella xylostella); assay: Diamond back moth, larvae sprayed with test solution (II.1.a); conditions: 500 ppm; third-instar larvae sprayed; mortality recorded 24, 72 and 120 hours after treatment; in comparison with untreated controls
Protocol: The active compound was dissolved at the desired concentration in a mixture of 1:1 (vol:vol) acetone:water. The test solution was prepared at the day of use.
Ten, third-istar larvae are sprayed with 1 ml test solution and introduced to untreated leaves held in a petri dish that was lined with moist filter paper. Mortality was recorded 24, 72 and 120 hours after treatment.

[3] = tested on: Cowpea Aphid (Aphis craccivora); assay: Activity against cowpea aphid, sprayed potted cowpea plants (II.3); conditions: population reduction assessed after 72 hours, in comparison with untreated controls
Protocol: The active compounds were formulated in 50:50 (vol:vol) acetone:water. The test solution was prepared at the day of use.
Potted cowpea plants colonized with 100-150 aphids of various stages were sprayed after the pest population had been recorded. Population reduction was assessed after 72 hours.

Cc1cc(F)c(-n2cnc3ccccc3c2=O)cc1SCC(F)(F)F [Compound I-1, 2-(2,2,2-trifluoroethylsufanyl)-4-(4-oxo-quinazolin-3-yl)-5-fluoro-toluol]
mortality [1]: 100%

Cc1cc(F)c(-n2cnc3ccccc3c2=O)cc1[S+]([O-])CC(F)(F)F (stereo not shown) [Compound I-2, 2-(2,2,2-trifluoroethylsufinyl)-4-(4-oxo-quinazolin-3-yl)-5-fluoro-toluol]
mortality [1]: 100%

Cc1cc(F)c(-n2c(C)nc3ccccc3c2=O)cc1SCC(F)(F)F [Compound I-3, 2-(2,2,2-trifluoroethylsufanyl)-4-(2-methyl-4-oxo-quinazolin-3-yl)-5-fluoro-toluol]
mortality [2]: 100%

O=c1c2ccccc2ncn1-c1ccnc(SCC(F)(F)F)n1 [Compound I-6, 3-[2-(2,2,2-Trifluoro-ethylsulfanyl)-pyrimidin-4-yl]-3H-quinazolin-4-one]
mortality at 300 ppm [3]: ≥ 50%
